According to patent publication US10478435B2, “Use of CRAC channel inhibitors for the treatment of stroke and traumatic brain injury” (CalciMedica, Inc., priority 2015, dated 2019):

System: BV2 cells
Experiment: Intracellular calcium accumulation in BV2 cells by live fluorescence microscopy with a calcium fluorescent probe
Type: cell-based
Conditions: Compound at 10 uM, FIG. 7
Protocol: Described herein, in some embodiments CRAC channel inhibitors are neuroprotectants in brain ischemia and related conditions. A neuron cell line (Neuro-2A, N-2A) was either cultured alone or in co-culture with microglial BV2 cells. Cells were exposed to a cycle of 2 h oxygen glucose deprivation (OGD) plus 22 h reoxygenation in the absence or presence of inhibitor (concentrations 1-50 μM). Cell viability was determined using quantitative calorimetric MTT assay and live/dead assay using immunofluorescence imaging. Toll-like receptor (TLR)-3 and -4 agonists induced inflammatory responses in microglia leading to increased nitric oxide (NO) generation as determined by the Greiss reagent. Intracellular calcium was determined by live fluorescence microscopy using a calcium fluorescent probe. Peroxide levels were measured as an indicator of oxidative stress. CRAC channels proteins (STIM1 & ORAI1), phosphoactive stress kinase JNK1/2, iNOS and expression was determined by immunoblotting assays. NFκB, NFAT and CREB transcription factors activation was measured by phosphorylation and nuclear translocation. […] The functional activity of the CRAC channels was evaluated by the effect on intracellular calcium accumulation in BV2 cells. […]
Fluorescence-based A neuron cell line (Neuro-2A, N-2A) was either cultured alone or in co-culture with microglial BV2 cells. […]

Cc1nc2cc(C)c(-c3cnc(NC(=O)c4c(F)ccc(F)c4F)s3)cc2o1 [Compound D, N-(5-(2,5-dimethylbenzo[d]oxazol-6-yl)thiazol-2-yl)-2,3,6-trifluorobenzamide]
LPS activated calcium accumulation: blunts LPS activated calcium accumulation
